Experimental data as given in ChEMBL document CHEMBL1933032, “Synthesis and evaluation of 4-alkoxy-[1'-cyclobutyl-spiro(3,4-dihydrobenzopyran-2,4'-piperidine)] analogues as histamine-3 receptor antagonists” (Bioorg Med Chem Lett, 2012).

Legend:
Histamine H3 receptor [1] = molecular target: Histamine H3 receptor (Homo sapiens, UniProt Q9Y5N1); assay: Binding affinity to human histamine H3 receptor
Histamine H3 receptor [2] = molecular target: Histamine H3 receptor (Rattus norvegicus, UniProt Q9QYN8); assay: Binding affinity to rat histamine H3 receptor
Histamine H1 receptor = Histamine H1 receptor (Homo sapiens, UniProt P35367); assay: Binding affinity to human histamine H1 receptor
Histamine H2 receptor = Histamine H2 receptor (Homo sapiens, UniProt P25021); assay: Binding affinity to human histamine H2 receptor
Histamine H4 receptor = Histamine H4 receptor (Homo sapiens, UniProt Q9H3N8); assay: Binding affinity to human histamine H4 receptor
[3] = Half life in human liver microsomes; format: ADME, Microsome
[4] = Half life in mouse liver microsomes; format: ADME, Microsome
[5] = Half life in rat liver microsomes; format: ADME, Microsome
[6] = Half life in monkey liver microsomes; format: ADME, Macaca mulatta, Microsome; details: rhesus monkey
Cytochrome P450 2D6 = Cytochrome P450 2D6 (Homo sapiens, UniProt P10635); assay: Inhibition of CYP2D6; format: ADME
[7] = Half life in rat at 1 mg/kg, iv; format: ADME, organism-based; set-up: dose 1 mg/kg, route intravenous; details: in vivo
[8] = Volume of distribution in rat at 1 mg/kg, iv; format: ADME, organism-based; set-up: dose 1 mg/kg, route intravenous; details: in vivo
[9] = Clearance in rat at 1 mg/kg, iv; format: ADME, organism-based; set-up: dose 1 mg/kg, route intravenous; details: in vivo
[10] = AUC (0 to t) in rat at 5 mg/kg, po; format: ADME, organism-based; set-up: dose 5 mg/kg, route oral; details: plasma
[11] = Cmax in rat at 5 mg/kg, po; format: ADME, organism-based; set-up: dose 5 mg/kg, route oral; details: in vivo
[12] = Oral bioavailability in rat at 5 mg/kg; format: ADME, organism-based; details: in vivo
[13] = Ratio drug uptake in brain to plasma of rat at 5 mg/kg, po measured after 6 hrs; format: ADME, organism-based; set-up: dose 5 mg/kg, route oral; details: read-out: BPR
[14] = Inhibition of nACh receptor at 10 uM
[15] = molecular target: T1, Alpha-2C adrenergic receptor (Homo sapiens) (UniProt P18825); assay: Inhibition of adrenergic Alpha-2C receptor at 10 uM
T1 sequence (whole entry): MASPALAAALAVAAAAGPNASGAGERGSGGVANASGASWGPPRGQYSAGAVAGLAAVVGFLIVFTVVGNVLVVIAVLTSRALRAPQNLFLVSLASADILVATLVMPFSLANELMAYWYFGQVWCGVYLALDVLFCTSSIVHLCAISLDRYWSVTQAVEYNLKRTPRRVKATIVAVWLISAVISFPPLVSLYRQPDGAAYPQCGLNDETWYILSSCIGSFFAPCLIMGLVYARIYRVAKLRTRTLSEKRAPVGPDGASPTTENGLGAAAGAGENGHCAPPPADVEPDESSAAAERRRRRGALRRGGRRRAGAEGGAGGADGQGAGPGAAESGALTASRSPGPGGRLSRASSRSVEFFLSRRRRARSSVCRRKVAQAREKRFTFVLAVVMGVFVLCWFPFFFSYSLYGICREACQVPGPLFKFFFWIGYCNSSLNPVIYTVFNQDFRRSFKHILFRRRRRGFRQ

[16] = molecular target: T2, Alpha-1D adrenergic receptor (Homo sapiens) (UniProt P25100); assay: Inhibition of adrenergic Alpha-1D receptor at 10 uM
T2 sequence (whole entry): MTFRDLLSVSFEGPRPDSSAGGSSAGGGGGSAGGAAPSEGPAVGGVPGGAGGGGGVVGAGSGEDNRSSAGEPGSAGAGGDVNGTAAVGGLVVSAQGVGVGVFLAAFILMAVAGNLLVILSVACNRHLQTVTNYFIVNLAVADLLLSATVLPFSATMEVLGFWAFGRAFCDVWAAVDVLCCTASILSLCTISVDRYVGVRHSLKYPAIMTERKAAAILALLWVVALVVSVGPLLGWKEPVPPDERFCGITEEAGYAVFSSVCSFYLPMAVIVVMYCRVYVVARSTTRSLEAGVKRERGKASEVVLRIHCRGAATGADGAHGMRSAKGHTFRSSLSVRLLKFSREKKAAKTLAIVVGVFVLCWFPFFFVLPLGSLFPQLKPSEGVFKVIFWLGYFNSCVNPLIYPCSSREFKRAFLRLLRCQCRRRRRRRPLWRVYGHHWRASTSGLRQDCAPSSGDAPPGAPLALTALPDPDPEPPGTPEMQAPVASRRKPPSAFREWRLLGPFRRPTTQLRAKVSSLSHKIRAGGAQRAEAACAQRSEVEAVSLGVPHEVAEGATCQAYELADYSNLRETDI

[17] = Plasma protein binding in human; format: ADME, cell-free; details: read-out: PPB (converted)
[18] = Plasma protein binding in rat; format: ADME, cell-free; details: read-out: PPB (converted)
[19] = Fraction unbound in rat brain homogenate; format: ADME, tissue-based
Rattus norvegicus = assay: Inhibition of RAMH-induced dipsogenia in rat at 3 mg/kg, po; format: functional
Cytochrome P450 1A2 = molecular target: T3, Cytochrome P450 1A2 (Homo sapiens, UniProt P05177); assay: Inhibition of CYP1A2; format: ADME
T3 sequence (P05177 whole entry): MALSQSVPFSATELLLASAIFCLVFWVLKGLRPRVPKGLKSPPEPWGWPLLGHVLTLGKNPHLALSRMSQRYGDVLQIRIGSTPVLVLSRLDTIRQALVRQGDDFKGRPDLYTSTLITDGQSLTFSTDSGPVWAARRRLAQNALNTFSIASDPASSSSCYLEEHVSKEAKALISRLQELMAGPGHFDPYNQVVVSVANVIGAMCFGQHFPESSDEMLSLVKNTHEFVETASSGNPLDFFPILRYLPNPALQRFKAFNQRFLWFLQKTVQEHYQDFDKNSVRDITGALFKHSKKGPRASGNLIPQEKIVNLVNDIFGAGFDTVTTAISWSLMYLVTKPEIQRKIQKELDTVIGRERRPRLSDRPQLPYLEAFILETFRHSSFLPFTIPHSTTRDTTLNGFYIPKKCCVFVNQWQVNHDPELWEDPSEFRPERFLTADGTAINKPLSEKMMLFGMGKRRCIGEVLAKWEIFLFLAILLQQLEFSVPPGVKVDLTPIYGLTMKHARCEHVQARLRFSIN

Cytochrome P450 2C9 = Cytochrome P450 2C9 (Homo sapiens, UniProt P11712); assay: Inhibition of CYP2C9; format: ADME
Cytochrome P450 2C19 = Cytochrome P450 2C19 (Homo sapiens, UniProt P33261); assay: Inhibition of CYP2C19; format: ADME
Cytochrome P450 3A4 = Cytochrome P450 3A4 (Homo sapiens, UniProt P08684); assay: Inhibition of CYP3A4; format: ADME
Cytochrome P450 3A4, sequence (P08684 whole entry): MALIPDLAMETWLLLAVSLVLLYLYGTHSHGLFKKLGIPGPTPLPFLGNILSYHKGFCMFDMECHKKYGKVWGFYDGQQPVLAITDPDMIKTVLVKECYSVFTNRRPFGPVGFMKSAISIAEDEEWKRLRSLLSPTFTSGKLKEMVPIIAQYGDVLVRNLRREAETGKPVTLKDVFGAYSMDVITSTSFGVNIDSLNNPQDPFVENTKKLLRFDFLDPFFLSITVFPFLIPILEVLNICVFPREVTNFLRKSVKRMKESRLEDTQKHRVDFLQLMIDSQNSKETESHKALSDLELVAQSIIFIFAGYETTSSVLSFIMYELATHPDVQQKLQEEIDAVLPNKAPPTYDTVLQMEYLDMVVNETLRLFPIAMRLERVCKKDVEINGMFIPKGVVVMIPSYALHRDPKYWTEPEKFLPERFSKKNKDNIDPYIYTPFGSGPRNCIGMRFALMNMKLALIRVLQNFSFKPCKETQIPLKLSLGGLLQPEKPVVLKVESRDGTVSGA

Cytochrome P450 2D6, sequence (P10635 whole entry): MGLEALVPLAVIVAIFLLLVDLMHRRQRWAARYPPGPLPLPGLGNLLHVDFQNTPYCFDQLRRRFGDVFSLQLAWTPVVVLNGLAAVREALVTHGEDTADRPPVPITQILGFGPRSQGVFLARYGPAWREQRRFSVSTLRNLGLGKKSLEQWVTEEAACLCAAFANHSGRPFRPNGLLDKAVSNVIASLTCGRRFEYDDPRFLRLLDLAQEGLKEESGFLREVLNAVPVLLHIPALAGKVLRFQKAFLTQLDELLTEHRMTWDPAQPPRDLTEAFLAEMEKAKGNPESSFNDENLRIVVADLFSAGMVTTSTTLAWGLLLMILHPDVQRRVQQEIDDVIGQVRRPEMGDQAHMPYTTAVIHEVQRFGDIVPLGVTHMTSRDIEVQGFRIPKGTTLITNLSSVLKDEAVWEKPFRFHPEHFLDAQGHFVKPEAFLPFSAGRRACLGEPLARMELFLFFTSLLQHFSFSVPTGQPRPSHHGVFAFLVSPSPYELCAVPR
Histamine H1 receptor, sequence (P35367 whole entry): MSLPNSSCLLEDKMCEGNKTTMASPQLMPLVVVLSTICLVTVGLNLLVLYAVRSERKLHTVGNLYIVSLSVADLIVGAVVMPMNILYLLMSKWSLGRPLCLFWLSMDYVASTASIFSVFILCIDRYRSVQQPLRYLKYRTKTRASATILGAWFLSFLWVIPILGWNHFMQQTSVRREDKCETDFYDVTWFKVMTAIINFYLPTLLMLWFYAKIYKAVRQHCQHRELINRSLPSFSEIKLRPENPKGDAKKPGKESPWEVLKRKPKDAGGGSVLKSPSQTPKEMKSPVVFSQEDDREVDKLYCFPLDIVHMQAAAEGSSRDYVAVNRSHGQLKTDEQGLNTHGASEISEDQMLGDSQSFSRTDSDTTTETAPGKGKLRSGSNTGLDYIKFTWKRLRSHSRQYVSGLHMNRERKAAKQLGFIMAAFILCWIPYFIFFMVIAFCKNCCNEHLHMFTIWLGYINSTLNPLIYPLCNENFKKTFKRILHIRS
Histamine H2 receptor, sequence (P25021 whole entry): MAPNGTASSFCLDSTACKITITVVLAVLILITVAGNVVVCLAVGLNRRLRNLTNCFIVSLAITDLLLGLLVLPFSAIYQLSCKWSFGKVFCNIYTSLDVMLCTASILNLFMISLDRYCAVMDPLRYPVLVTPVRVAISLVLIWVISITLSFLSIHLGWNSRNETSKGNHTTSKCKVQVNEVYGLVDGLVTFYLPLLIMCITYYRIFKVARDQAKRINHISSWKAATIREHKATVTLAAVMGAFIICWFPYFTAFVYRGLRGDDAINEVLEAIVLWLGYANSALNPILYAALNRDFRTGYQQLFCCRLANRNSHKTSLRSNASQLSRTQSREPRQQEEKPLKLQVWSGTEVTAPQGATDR
Histamine H3 receptor (Rattus norvegicus, UniProt Q9QYN8), sequence (Q9QYN8 whole entry): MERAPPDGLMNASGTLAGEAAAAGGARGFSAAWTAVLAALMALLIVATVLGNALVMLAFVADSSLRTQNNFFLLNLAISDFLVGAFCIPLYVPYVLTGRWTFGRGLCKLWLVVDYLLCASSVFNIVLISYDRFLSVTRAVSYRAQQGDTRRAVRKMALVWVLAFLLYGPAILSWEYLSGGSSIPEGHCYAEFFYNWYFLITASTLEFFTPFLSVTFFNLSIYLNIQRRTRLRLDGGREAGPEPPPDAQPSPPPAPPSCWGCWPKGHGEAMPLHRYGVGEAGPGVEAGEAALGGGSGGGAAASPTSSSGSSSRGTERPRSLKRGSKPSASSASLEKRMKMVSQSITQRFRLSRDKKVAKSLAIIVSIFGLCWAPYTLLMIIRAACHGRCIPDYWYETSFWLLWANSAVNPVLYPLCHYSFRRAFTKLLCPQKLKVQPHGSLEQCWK
Histamine H3 receptor (Homo sapiens, UniProt Q9Y5N1), sequence (Q9Y5N1 whole entry): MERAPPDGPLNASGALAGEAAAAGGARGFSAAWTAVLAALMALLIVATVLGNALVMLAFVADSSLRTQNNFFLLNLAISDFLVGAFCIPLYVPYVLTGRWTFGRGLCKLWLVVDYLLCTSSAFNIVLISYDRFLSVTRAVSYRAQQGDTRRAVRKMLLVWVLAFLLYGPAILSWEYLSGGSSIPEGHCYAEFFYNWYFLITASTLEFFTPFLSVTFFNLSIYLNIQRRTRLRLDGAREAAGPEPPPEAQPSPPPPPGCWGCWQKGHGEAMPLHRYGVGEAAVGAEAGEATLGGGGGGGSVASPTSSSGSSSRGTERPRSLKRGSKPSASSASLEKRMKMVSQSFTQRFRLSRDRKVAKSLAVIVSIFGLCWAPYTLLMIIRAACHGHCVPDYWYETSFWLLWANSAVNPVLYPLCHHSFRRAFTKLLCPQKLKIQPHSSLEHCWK
Histamine H4 receptor, sequence (Q9H3N8 whole entry): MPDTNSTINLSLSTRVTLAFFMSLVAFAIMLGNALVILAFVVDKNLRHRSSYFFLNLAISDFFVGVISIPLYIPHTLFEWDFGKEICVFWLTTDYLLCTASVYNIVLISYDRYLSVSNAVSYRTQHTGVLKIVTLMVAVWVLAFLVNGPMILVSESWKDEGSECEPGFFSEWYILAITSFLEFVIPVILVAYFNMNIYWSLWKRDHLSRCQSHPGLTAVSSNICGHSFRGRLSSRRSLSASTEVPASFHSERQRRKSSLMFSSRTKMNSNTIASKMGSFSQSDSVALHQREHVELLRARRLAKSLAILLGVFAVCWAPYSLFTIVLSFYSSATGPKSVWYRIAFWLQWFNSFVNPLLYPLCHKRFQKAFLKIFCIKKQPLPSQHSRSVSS
Cytochrome P450 2C9, sequence (P11712 whole entry): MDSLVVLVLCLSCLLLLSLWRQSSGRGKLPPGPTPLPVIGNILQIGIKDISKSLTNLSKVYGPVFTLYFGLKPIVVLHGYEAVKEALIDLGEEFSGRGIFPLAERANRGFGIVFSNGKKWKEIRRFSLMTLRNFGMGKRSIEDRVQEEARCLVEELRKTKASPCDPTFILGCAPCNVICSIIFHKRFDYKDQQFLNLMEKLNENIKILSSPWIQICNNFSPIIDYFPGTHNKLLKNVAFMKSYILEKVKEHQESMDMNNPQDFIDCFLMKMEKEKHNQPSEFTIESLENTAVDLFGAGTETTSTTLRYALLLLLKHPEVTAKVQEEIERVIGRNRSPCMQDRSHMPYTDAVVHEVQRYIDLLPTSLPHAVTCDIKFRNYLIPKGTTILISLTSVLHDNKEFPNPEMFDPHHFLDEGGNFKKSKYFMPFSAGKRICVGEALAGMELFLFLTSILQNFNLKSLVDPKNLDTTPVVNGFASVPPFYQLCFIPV
Cytochrome P450 2C19, sequence (P33261 whole entry): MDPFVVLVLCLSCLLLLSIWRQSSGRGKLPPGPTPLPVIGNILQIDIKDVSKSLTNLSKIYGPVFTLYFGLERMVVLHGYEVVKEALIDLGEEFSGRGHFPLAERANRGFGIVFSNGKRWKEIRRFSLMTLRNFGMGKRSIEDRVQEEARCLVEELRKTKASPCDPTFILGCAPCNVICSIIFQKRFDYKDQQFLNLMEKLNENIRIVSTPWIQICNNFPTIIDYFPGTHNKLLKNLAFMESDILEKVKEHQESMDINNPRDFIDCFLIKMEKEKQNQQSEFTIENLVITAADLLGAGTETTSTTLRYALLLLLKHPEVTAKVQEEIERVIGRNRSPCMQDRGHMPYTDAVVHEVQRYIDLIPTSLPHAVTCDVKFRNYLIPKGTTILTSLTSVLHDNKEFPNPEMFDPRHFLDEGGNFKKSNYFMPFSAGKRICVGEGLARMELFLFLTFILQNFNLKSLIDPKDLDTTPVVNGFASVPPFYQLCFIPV

c1cc2c(cc1O[C@H]1CCOC1)CCC1(CCN(C3CCC3)CC1)O2
Ki (Histamine H3 receptor [1]): 15 nM
Ki (Histamine H3 receptor [2]): 39 nM

c1cc2c(cc1OCC1CCOC1)CCC1(CCN(C3CCC3)CC1)O2 (stereo not drawn)
Ki (Histamine H3 receptor [1]): 18 nM
Ki (Histamine H3 receptor [2]): 49 nM

c1cc2c(cc1OCC1CCCO1)CCC1(CCN(C3CCC3)CC1)O2 (stereo not drawn)
Ki (Histamine H3 receptor [1]): 16 nM
Ki (Histamine H3 receptor [2]): 50 nM

c1cc2c(cc1O[C@@H]1CCOC1)CCC1(CCN(C3CCC3)CC1)O2
Ki (Histamine H3 receptor [1]): 27 nM
Ki (Histamine H3 receptor [2]): 119 nM

O=S1(=O)CCC(Oc2ccc3c(c2)CCC2(CCN(C4CCC4)CC2)O3)CC1
Ki (Histamine H3 receptor [1]): 7 nM
Ki (Histamine H3 receptor [2]): 24 nM
Ki (Histamine H1 receptor): > 10000 nM
Ki (Histamine H2 receptor): > 10000 nM
Ki (Histamine H4 receptor): > 10000 nM
half-life [3]: > 40 min
half-life [4]: > 40 min
half-life [5]: > 40 min
half-life [6]: > 40 min
IC50 (Cytochrome P450 2D6): 6600 nM
half-life [7]: 102 min
Vd [8]: 2.8 L/kg
clearance [9]: 19 mL/min/kg
AUC(0-t) [10]: 1790 ng·h/mL
Cmax [11]: 460 ng/mL
bioavailability [12]: 48%
Kp at 6 h [13]: 1
inhibition [14]: 63%
inhibition [15]: 78%
inhibition [16]: 50%
fraction unbound [17]: 0.23
fraction unbound [18]: 0.27
fraction unbound [19]: 0.27
inhibition in vivo at 3 mg/kg (Rattus norvegicus): 61%

c1cc2c(cc1OC1CCSCC1)CCC1(CCN(C3CCC3)CC1)O2
Ki (Histamine H3 receptor [1]): 23 nM
Ki (Histamine H3 receptor [2]): 62 nM

OCCOc1ccc2c(c1)CCC1(CCN(C3CCC3)CC1)O2
Ki (Histamine H3 receptor [1]): 126 nM
Ki (Histamine H3 receptor [2]): 368 nM

O=S1(=O)CCC(COc2ccc3c(c2)CCC2(CCN(C4CCC4)CC2)O3)CC1
Ki (Histamine H3 receptor [1]): 4 nM
Ki (Histamine H3 receptor [2]): 9 nM
Ki (Histamine H1 receptor): > 10000 nM
Ki (Histamine H2 receptor): > 10000 nM
Ki (Histamine H4 receptor): > 10000 nM
half-life [3]: > 40 min
half-life [4]: > 40 min
half-life [5]: > 40 min
half-life [6]: > 40 min
IC50 (Cytochrome P450 2D6): 11000 nM
half-life [7]: 114 min
Vd [8]: 3.6 L/kg
clearance [9]: 23 mL/min/kg
AUC(0-t) [10]: 713 ng·h/mL
Cmax [11]: 157 ng/mL
bioavailability [12]: 22%
Kp at 6 h [13]: 0.73

CS(=O)(=O)CCCOc1ccc2c(c1)CCC1(CCN(C3CCC3)CC1)O2
Ki (Histamine H3 receptor [1]): 10 nM
Ki (Histamine H3 receptor [2]): 41 nM
Ki (Histamine H1 receptor): > 10000 nM
Ki (Histamine H2 receptor): > 10000 nM
Ki (Histamine H4 receptor): > 10000 nM
half-life [3]: > 40 min
half-life [4]: > 40 min
half-life [5]: > 40 min
half-life [6]: > 40 min
IC50 (Cytochrome P450 1A2): > 30000 nM
IC50 (Cytochrome P450 2C9): > 30000 nM
IC50 (Cytochrome P450 2C19): > 30000 nM
IC50 (Cytochrome P450 2D6): > 30000 nM
IC50 (Cytochrome P450 3A4): > 30000 nM
half-life [7]: 54 min
Vd [8]: 1.2 L/kg
clearance [9]: 16 mL/min/kg
AUC(0-t) [10]: 586 ng·h/mL
Cmax [11]: 142 ng/mL
bioavailability [12]: 13%
Kp at 6 h [13]: 0.73

c1cc2c(cc1OC1CCOCC1)CCC1(CCN(C3CCC3)CC1)O2
Ki (Histamine H3 receptor [1]): 15 nM
Ki (Histamine H3 receptor [2]): 42 nM

CC(C)(O)COc1ccc2c(c1)CCC1(CCN(C3CCC3)CC1)O2
Ki (Histamine H3 receptor [1]): 18 nM
Ki (Histamine H3 receptor [2]): 74 nM

c1cc2c(cc1OC1CCSC1)CCC1(CCN(C3CCC3)CC1)O2 (stereo not drawn)
Ki (Histamine H3 receptor [1]): 17 nM
Ki (Histamine H3 receptor [2]): 42 nM

CSCCCOc1ccc2c(c1)CCC1(CCN(C3CCC3)CC1)O2
Ki (Histamine H3 receptor [1]): 15 nM
Ki (Histamine H3 receptor [2]): 64 nM

CC(O)COc1ccc2c(c1)CCC1(CCN(C3CCC3)CC1)O2 (stereo not drawn)
Ki (Histamine H3 receptor [1]): 25 nM
Ki (Histamine H3 receptor [2]): 99 nM

CS(=O)(=O)CCOc1ccc2c(c1)CCC1(CCN(C3CCC3)CC1)O2
Ki (Histamine H3 receptor [1]): 39 nM
Ki (Histamine H3 receptor [2]): 157 nM

CC[C@@H](O)COc1ccc2c(c1)CCC1(CCN(C3CCC3)CC1)O2
Ki (Histamine H3 receptor [1]): 15 nM
Ki (Histamine H3 receptor [2]): 86 nM

CC[C@H](O)COc1ccc2c(c1)CCC1(CCN(C3CCC3)CC1)O2
Ki (Histamine H3 receptor [1]): 26 nM
Ki (Histamine H3 receptor [2]): 112 nM

c1cc2c(cc1OCC1CCSCC1)CCC1(CCN(C3CCC3)CC1)O2
Ki (Histamine H3 receptor [1]): 12 nM
Ki (Histamine H3 receptor [2]): 48 nM

CSCCOc1ccc2c(c1)CCC1(CCN(C3CCC3)CC1)O2
Ki (Histamine H3 receptor [1]): 38 nM
Ki (Histamine H3 receptor [2]): 86 nM

O=S1(=O)CCC(Oc2ccc3c(c2)CCC2(CCN(C4CCC4)CC2)O3)C1 (stereo not drawn)
Ki (Histamine H3 receptor [1]): 23 nM
Ki (Histamine H3 receptor [2]): 44 nM

COCCOc1ccc2c(c1)CCC1(CCN(C3CCC3)CC1)O2
Ki (Histamine H3 receptor [1]): 42 nM
Ki (Histamine H3 receptor [2]): 91 nM
